# Assay results published in the supplement of paper PMC10307832.
# Legend:
# Assay in all cases: relative viability (nuclei count vs DMSO), 5 days (fraction); higher = more cells survive
# Masitinib + Alpelisib = compound: Cc1ccc(NC(=O)c2ccc(CN3CCN(C)CC3)cc2)cc1Nc1nc(-c2cccnc2)cs1 [Masitinib] + Cc1nc(NC(=O)N2CCC[C@H]2C(N)=O)sc1-c1ccnc(C(C)(C)C(F)(F)F)c1 [Alpelisib] (partner 2 µM)
# How it was run: (§1)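 For relative viability, nuclei counts in treated wells were divided by those in vehicle wells. Lung cancer cell lines had been pin-tool dosed in 1536-well plates the day after seeding and cultured for 5 days, then fixed and stained in one step (final 0.05% Triton X-100, 1% formaldehyde, 1 ug/ml Hoechst) and imaged at 4×. Doses were one drug alone or a fixed anchor-drug dose plus five library-drug doses (not always all listed) in √10 steps, and values are duplicate-plate medians.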
# [1] = compound: CC1=CC(=CC=C1)NC2=NC(=CS2)C3=CC=NC=C3 + CC(=O)c1c(C)c2cnc(Nc3ccc(N4CCNCC4)cn3)nc2n(C2CCCC2)c1=O [Palbociclib] (partner 0.5 µM)
# How it was run: as §1
# Masitinib + Decitabine = compound: Cc1ccc(NC(=O)c2ccc(CN3CCN(C)CC3)cc2)cc1Nc1nc(-c2cccnc2)cs1 [Masitinib] + Nc1ncn([C@H]2C[C@H](O)[C@@H](CO)O2)c(=O)n1 [Decitabine] (partner 2 µM)
# How it was run: as §1
# [2] = compound: CC1=CC(=CC=C1)NC2=NC(=CS2)C3=CC=NC=C3 + Nc1nc2[nH]cc(CCc3ccc(C(=O)N[C@@H](CCC(=O)O)C(=O)O)cc3)c2c(=O)[nH]1 [Pemetrexed] (partner 0.2 µM)
# How it was run: as §1
Cell Line,relative viability (Masitinib + Alpelisib; first compound 0.01 µM),relative viability (Masitinib + Alpelisib; first compound 0.03162 µM),relative viability (Masitinib + Alpelisib; first compound 0.1 µM),relative viability (Masitinib + Alpelisib; first compound 0.3162 µM),relative viability (Masitinib + Alpelisib; first compound 1 µM),relative viability ([1]; first compound 0.253 µM),relative viability ([1]; first compound 0.8 µM),relative viability ([1]; first compound 2.53 µM),relative viability ([1]; first compound 8 µM),relative viability (Masitinib + Decitabine; first compound 0.01 µM),relative viability (Masitinib + Decitabine; first compound 0.03162 µM),relative viability (Masitinib + Decitabine; first compound 0.1 µM),relative viability (Masitinib + Decitabine; first compound 0.3162 µM),relative viability (Masitinib + Decitabine; first compound 1 µM),relative viability ([2]; first compound 0.253 µM),relative viability ([2]; first compound 0.8 µM),relative viability ([2]; first compound 2.53 µM),relative viability ([2]; first compound 8 µM),relative viability ([1]; first compound 0.08 µM),relative viability ([2]; first compound 0.08 µM)
LK-2,1.28,0.609,1.38,1.15,1.3,0.764,0.675,0.699,1.06,0.342,0.261,0.366,0.249,0.281,0.315,0.263,0.135,0.347,,
HCC-366,0.33,0.294,0.376,0.315,0.382,0.343,0.274,0.275,0.257,,0.339,0.369,0.389,0.33,0.123,0.121,0.113,0.0949,0.372,0.154
BEN,1.21,0.901,1.3,1.34,0.945,0.521,0.424,0.489,0.482,0.727,0.739,0.753,0.699,0.728,0.841,0.936,0.584,0.682,0.457,0.685
NCI-H2347,0.981,1.14,1.01,1.13,1.05,0.417,0.413,0.444,0.436,0.598,0.529,0.614,0.669,0.652,0.42,0.41,0.404,0.385,0.392,0.431
NCI-H1395,1.12,1.01,1.1,1.16,1.09,,0.546,0.556,0.606,0.734,0.705,0.694,0.703,0.62,,0.921,0.596,0.728,0.577,0.757
201T,0.866,1.01,0.978,0.877,0.989,0.319,0.359,0.348,0.336,0.762,0.861,0.848,0.921,0.881,0.293,0.321,0.301,0.334,0.401,0.339
NCI-H358,0.734,0.802,0.813,0.788,0.852,0.15,0.151,0.144,0.129,0.184,0.195,0.243,0.189,0.192,0.19,0.175,0.176,0.166,0.132,0.153
NCI-H520,0.914,,0.966,0.826,1.02,0.234,0.239,0.261,0.291,0.482,0.482,0.513,0.59,0.437,0.678,0.677,0.865,0.644,0.217,0.706
HCC-15,0.8,0.873,0.976,0.85,0.916,0.641,0.631,0.562,0.653,0.58,0.546,0.659,0.582,0.638,0.214,0.203,0.194,0.214,0.74,0.222
LCLC-103H,0.711,0.913,0.917,0.992,0.971,0.445,0.477,0.406,0.507,,0.723,0.735,0.748,0.711,0.434,0.45,0.46,0.488,0.402,0.415
NCI-H460,0.479,0.522,0.521,0.429,0.471,0.0813,0.0708,0.0785,0.086,0.307,0.378,0.45,0.455,0.462,0.0625,0.0614,0.0648,0.0687,0.0801,0.0627
EPLC-272H,0.999,0.902,1.12,1.07,0.898,0.315,0.372,,0.332,0.369,0.344,0.358,0.388,0.313,0.375,0.264,0.31,0.332,0.309,0.404
